3 compounds from US4180577A, “Furo[2, 3d]pyrimidine derivatives and anti-ulcer containing the same” (Eisai Co., Ltd., priority 1974, dated 1979) can be followed below.

Values joined by “and” are separate entries in the source; they are usually repeats but may differ in a detail not shown here. Equal values may be shown once. Where a name gives a salt, the structure may show the parent alone.

The subject of assay [1] is Secretion of Gastric Juice. The experiment in a line: Effect for Secretion of Gastric Juice (pylorus-ligated rats, Shay method). The conditions noted are these: rat, 100 mg/Kg, into the duodenum; for Amount of gastric juice Vol. / Free Acid Output / Total Acid Output: 4 hours; for Amount of gastric juice Vol.: control 1.78 ± 0.26; for Free Acid Output: control 133.2 ± 32.7; for Total Acid Output: control 154.0 ± 36.0; for suppression of the amount of the gastric juice / suppression of the free acid output / suppression of the total acid output: vs control group. The assay is classed as in vivo, male rats of SD strain. How it is done: (§1) The compounds to be tested were suspended in 5% serous gum arabic solution, so as to adjust their concentration to 0.5 ml/100 g B.W. for oral administration, or 0.2 ml/100 g B.W. for duodenum administration. Indomethacin, [1-(p-chlorobenzoyl)-5-methoxy-2-methylindole-3-acetic acid] for control was suspended in 5% serous gum arabic solution, so as to adjust its concentration to 0.5 ml/100 g B.W.
The solutions of the compounds to be tested were adjusted to pH 5.0, and administered into the duodenum. The bellys were closed. After 4 hours, the animals were slaughtered by anesthesia, and the gastric juice was collected.
The volume of the gastric juice was measured and titrated by N/50 NaOH solution with Topfer indicator and phenolphthalein indicator, to determine the free acid output the total acid output, respectively.
The compounds to be tested were administered into the duodenum immediately after ligaturing the pylorus.
The medicine solution was adjusted to pH 5.0 with N--NaOH solution.

The test system of assay [2] is Indomethacin-induced Ulcer. Kind of assay: Effects on Indomethacin-induced Ulcer. It counts as in vivo, Wister strain male rats. The conditions noted are these: rat, oral, 30 minutes prior to Indomethacin 40 mg/Kg; for Percentage of inhibition (ulcer index): vs control; for Ulcer index: control 9.30 ± 3.09; for Percentage of Incidence of Ulcer: control 75. As to the method:
as §1
Wister strain male rats (weighing about 230 g) were subjected to the fast for 24 hours. 40 mg/Kg of the Indomethacin were orally administered, respectively. After 4 hours from the administration, the animals were slaughtered and their stomaches were extirpated. The subsequent procedures were carried out in accordance with the pharmacological experiment 3.
The compounds to be tested were orally administered 30 minutes prior to the administration of Indomethacin.

For assay [3], the system named is Ligature Ulcer of the Pylorus. The experiment in a line: Effect on Ligature Ulcer of the Pylorus. The assay is classed as in vivo, male rats of SD strain. Conditions: rat, 300 mg/Kg, into the duodenum, 17 hours. How it is done: as §1
According to the method by H. Shay et al. [Gastroenterology 5, 43 (1945)], male rats (weighing about 320 g) of SD strain were fasted for 24 hours, and then incised the belly under the ether rausch anesthesia, and finally ligatured the pyloruses. The solution of compounds to be tested were adjusted to pH 5.0, and administered into the duodenum. The bellys were closed. After subsequent 17 hours, the animals were slaughtered by the anesthesia, and their stomaches were extirpated. More particularly, the stomaches were incised along the greater curvature. The ulcer generated at forestomach was ranged as shown in the following. The total of the ranking was named as the ulcer index.
Greater than 1 mm, but not greater
Greater than 3 mm, but not greater
Greater than 5 mm, but not greater

Assay [4] relates to Immersive Stress-induced Ulcer. Kind of assay: Inhibitory Effects on the Immersive Stress-induced Ulcer. It counts as in vivo, female rats of SD strain. The conditions noted are these: rat, oral; for Percentage of inhibition (ulcer index): vs control; for Ulcer index: control 80.4 ± 3.5. How it is done: as §1
According to the method by K. Takagi et al. [Jap. J. Pharmacol. 18, 9 )1968)], female rats (weighing about 160 g) of SD strain were put in a cage made of wire gauze for restraint, dipped in a water bath at the temperature of 23° C. so as to cover the lower end of their breast bones, and allowed to stand for 20 hours. The animals were then slaughtered by the anesthesia, and their stomaches were extirpated. The stomaches were inflated with 10 ml of physiological saline water, and dipped in 0.5% neutral formalin solution for about 5 minutes according to the method by D. A. Brodie et al [Gastroenterology 38, 354-360 (1960)]. The stomaches were then incised along the greater curvature. The length of each ulcer (erosion) generated at adeno-stomach was measured. The total of said lengthes were assigned as the ulcer index.
The compounds to be tested were orally administered prior to the immersion.

Assay [5] deals with Cold-restraint Stress Induced Ulcer. The experiment in a line: Inhibitory Effects on Cold-restraint Stress Induced Ulcer. The assay is classed as in vivo, female rats of SD strain. The conditions noted are these: rat, oral; for Percentage of inhibition (ulcer index) / Ulcer index: 30 minutes prior to stress; for Percentage of inhibition (ulcer index): vs control, hydrobromide; for Ulcer index: control 14.8 ± 1.7. How it is done: as §1
This experiment was effected by referring to the method by S. Dai et al. [Eur. J. Pharmaco. 26, 15-21 (1974)] and the method by M. M. Goldenberg et al. [Am. J. Dic. Dis 19, 4, 353-360 (1974)].
Female rats of SD strain (weighing about 180 g) were restrained in a cage made of wire gauze, and the cage was allowed to stand in a room at the low temperature at 4° C. for two hours. After subsequent two hours, the animals were slaughtered. The stomaches were extirpated. Thereafter, the subsequent procedure was carried out in accordance with the pharmacological experiment 3.
The compounds to be tested were orally administered 30 minutes prior to exposure of the stress.

As to `CSc1nc(N)c2c(C)coc2n1` [B, 2-Methylmercapto-4-amino-5-methyl-furo[2, 3d]pyrimidine hydrobromide], in assay [1], the “Amount of gastric juice Vol.” value is recorded as 0.51 ± 0.09 (ml)/100g B.W, the “Free Acid Output” value is listed as 16.5 ± 5.5 μEq/100g B.W, the “Total Acid Output” value came to 37.8 ± 5.6 μEq/100g B.W and the “suppression of the amount of the gastric juice” value was “over 54%”. In addition, in assay [1], the “suppression of the free acid output” value is “over 69%” and the “suppression of the total acid output” value was “over 57%”.

For the compound `C=CCSc1nc(N)c2c(C)coc2n1` [C, 2-Allylmercapto-4-amino-5-methyl-furo[2, 3d]pyrimidine], in assay [1], the “Amount of gastric juice Vol.” value is on record as 0.49 ± 0.11 (ml)/100g B.W, the “Free Acid Output” value was determined as 18.2 ± 7.1 μEq/100g B.W, the “Total Acid Output” value was found to be 33.1 ± 7.6 μEq/100g B.W and the “suppression of the amount of the gastric juice” value is recorded as “over 54%”. In assay [1], the “suppression of the free acid output” value is recorded as “over 69%” and the “suppression of the total acid output” value is “over 57%”.

With `CCSc1nc(N)c2c(C)coc2n1` [Compound A, 2-Ethylmercapto-4-amino-5-methyl-furo[2, 3d]pyrimidine hydrobromide], the “Percentage of inhibition (ulcer index)” value in assay [2] (25 mg/Kg) amounted to 82%; in assay [2] (50 mg/Kg), 100%; in assay [2] (100 mg/Kg), 98%; in assay [3] (vs control), 100%; in assay [4] (150 mg/Kg), 21.0%; in assay [4] (300 mg/Kg), 38.7%. The “Percentage of inhibition (ulcer index)” value in assay [5] (50 mg/Kg, 50 mg/kg) was 78.4% and 78%; in assay [5] (100 mg/Kg, 100 mg/kg), 85.8% and 86%. Further, the “Ulcer index” value in assay [2] (25 mg/Kg) is recorded as 1.67 ± 1.00 mm; in assay [2] (50 mg/Kg), 0 ± 0 mm; in assay [2] (100 mg/Kg), 0.20 ± 0.19 mm; in assay [3] (control 54 ± 14) it was 0 ± 0 mm; in assay [4] (150 mg/Kg), 63.5 ± 6.5 mm; in assay [4] (300 mg/Kg) it was 49.3 ± 3.4 mm. For the same compound, the results for the Ulcer index in assay [5] (50 mg/Kg) and in assay [5] (100 mg/Kg) were 3.2 ± 1.0 mm and 2.1 ± 0.6 mm, respectively. For the same compound, the entries for the “Percentage of Incidence of Ulcer” value in assay [2] (25 mg/Kg), in assay [2] (50 mg/Kg) and in assay [2] (100 mg/Kg) were 38%, 0% and 13%, respectively. In addition, in assay [1], the “Amount of gastric juice Vol.” value was 0.81 ± 0.15 (ml)/100g B.W. Moreover, the “Free Acid Output” value in assay [1] was determined as 41.0 ± 16.6 μEq/100g B.W. Moreover, the “Total Acid Output” value in assay [1] amounted to 65.8 ± 20.4 μEq/100g B.W. Besides, the “suppression of the amount of the gastric juice” value in assay [1] is reported as “over 54%”. Moreover, the “suppression of the free acid output” value in assay [1] is given as “over 69%”. For the same compound, the “suppression of the total acid output” value in assay [1] is given as “over 57%”. The “dose dependence of ulcer inhibition” value in assay [4] (150 and 300 mg/Kg) is on record as “dose dependent”; in assay [5] (50 and 100 mg/Kg), “dose dependent”.
